These results are taken from patent publication US8802664B2 (Bioproject, priority 2010, dated 2014).

This experiment deals with T1, human H4 receptor (Homo sapiens, UniProt Q9H3N8).
T1 construct: expressed in transfected cells
T1 sequence (Q9H3N8 whole entry): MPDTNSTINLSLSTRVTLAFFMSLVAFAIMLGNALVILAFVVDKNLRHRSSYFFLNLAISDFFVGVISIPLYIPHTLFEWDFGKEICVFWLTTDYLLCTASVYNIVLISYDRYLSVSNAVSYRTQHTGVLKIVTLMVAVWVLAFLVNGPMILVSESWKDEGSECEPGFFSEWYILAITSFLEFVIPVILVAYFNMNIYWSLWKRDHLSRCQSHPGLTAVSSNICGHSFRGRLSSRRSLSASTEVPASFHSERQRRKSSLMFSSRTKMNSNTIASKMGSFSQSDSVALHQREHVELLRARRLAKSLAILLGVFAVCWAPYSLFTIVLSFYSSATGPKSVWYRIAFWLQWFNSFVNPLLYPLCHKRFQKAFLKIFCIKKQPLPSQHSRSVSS
The experiment is described as follows: [3H]Histamine binding on membranes of CHO cells stably expressing human H4 receptor. The method in brief: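 CHO-hH4 membranes 20 μg/well; buffer 50 mM Tris/HCl, 0.5 mM EDTA, pH 7.4; NSB: 10 μM JNJ 7777120 (BP1.2404); GF/B filtration (PEI-presoaked), 3 ice-cold washes; scintillation counting.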
For `CN1CCC(OC(c2cccc(-c3ccccc3F)c2)c2nc3ccccc3s2)CC1` (stereo not shown) [Example 137, 2-[(2′-fluorobiphenyl-3-yl)(1-methylpiperidin-4-yloxy)methyl]benzothiazole], the Ki or IC50 activity class was less than 300 nM.

Turning to `CN1CCC(OC(c2cccc(-c3cccc(F)c3)c2)c2nc3ccccc3s2)CC1` (stereo not shown) [Example 139, 2-[(3′-fluorobiphenyl-3-yl)(1-methylpiperidin-4-yloxy)methyl]benzothiazole], the Ki or IC50 activity class is less than 30 nM.

Turning to `CN1CCC(OC(c2cccc(-c3ccc(C(F)(F)F)cc3)c2)c2nc3ccccc3s2)CC1` (stereo not shown) [Example 140, 2-[(1-methylpiperidin-4-yloxy)(4′-trifluoromethylbiphenyl-3-yl)methyl]benzothiazole], the Ki or IC50 activity class is less than 300 nM.

In turn, `CN1CCC(OC(c2cccc(-c3ccc(F)c(F)c3F)c2)c2nc3ccccc3s2)CC1` (stereo not shown) [Example 141, 2-[(1-methylpiperidin-4-yloxy)(2′,3′,4′-trifluorobiphenyl-3-yl)methyl]benzothiazole] had a Ki or IC50 activity class of less than 300 nM.

`CN1CCC(OC(c2cccc(-c3ccc(NC(=O)OC(C)(C)C)cc3)c2)c2nc3ccccc3s2)CC1` (stereo not shown) [Example 143, {3′-[benzothiazol-2-yl(1-methylpiperidin-4-yloxy)methyl]biphenyl-4-yl}carbamic acid tert-butyl ester] showed a Ki or IC50 activity class of less than 300 nM.

Regarding `CN1CCC(OC(c2cccc(-n3cccn3)c2)c2nc3ccccc3s2)CC1` (stereo not shown) [Example 147, 2-[(1-methylpiperidin-4-yloxy)(3-pyrazol-1-ylphenyl)methyl]benzothiazole], the Ki or IC50 activity class is less than 300 nM.

As to `CN1CCC(NC(c2cccc(OCc3cc(F)ccc3F)c2)c2nc3ccccc3[nH]2)CC1` (stereo not shown) [Example 149, {(1H-benzimidazol-2-yl)[3-(2,5-difluoro-benzyloxy)phenyl]methyl}(1-methylpiperidin-4-yl)amine], the Ki or IC50 activity class is less than 30 nM.

`CN1CCC(OC(c2cccc(SCc3ccccc3)c2)c2nc3ccccc3[nH]2)CC1` (stereo not shown) [Example 150, 2-[(3-benzylsulfanylphenyl)(1-methylpiperidin-4-yloxy)methyl]-1H-benzimidazole] had a Ki or IC50 activity class of less than 300 nM.

With `CCc1cccc(C(OC2CCN(C)CC2)c2nc3ccccc3s2)c1` (stereo not shown) [Example 152, 2-[(3-ethylphenyl)(1-methylpiperidin-4-yloxy)methyl]benzothiazole], the Ki or IC50 activity class was less than 30 nM.

Compound `CCSc1cccc(C(OC2CCN(C)CC2)c2nc3ccccc3[nH]2)c1` (stereo not shown) [Example 153, 2-[(3-ethylsulfanylphenyl)(1-methylpiperidin-4-yloxy)methyl]-1H-benzimidazole] registered a Ki or IC50 activity class of less than 30 nM.

In turn, `COC(=O)CSc1cccc(C(OC2CCN(C)CC2)c2nc3ccccc3[nH]2)c1` (stereo not shown) [Example 154, {3-[(1H-benzimidazol-2-yl)(1-methylpiperidin-4-yloxy)methyl]phenylsulfanyl}acetic acid methyl ester] came in with a Ki or IC50 activity class of less than 300 nM.

In turn, `CN1CCC(OC(c2cccc(OCc3cc(F)ccc3F)c2)c2nc3ccccc3s2)CC1` (stereo not shown) [Example 156, 2-[[3-(2,5-difluorobenzyloxy)phenyl](1-methylpiperidin-4-yloxy)methyl]benzothiazole] returned a Ki or IC50 activity class of less than 30 nM.

For `CN1CCC(OC(c2cccc(SCCO)c2)c2nc3ccccc3[nH]2)CC1` (stereo not shown) [Example 157, 2-{3-[(1H-benzimidazol-2-yl)(1-methylpiperidin-4-yloxy)methyl]phenylsulfanyl}ethanol], the Ki or IC50 activity class is less than 300 nM.

The compound `CN1CCC(OC(c2cccc(SCCO)c2)c2nc3ccccc3s2)CC1` (stereo not shown) [Example 158, 2-{3-[benzothiazol-2-yl(1-methylpiperidin-4-yloxy)methyl]phenylsulfanyl}ethanol] had a Ki or IC50 activity class of less than 30 nM.

Compound `CCSc1cccc(C(OC2CCN(C)CC2)c2nc3ccccc3s2)c1` (stereo not shown) [Example 159, 2-[(3-ethylsulfanylphenyl)(1-methylpiperidin-4-yloxy)methyl]benzothiazole] registered a Ki or IC50 activity class of less than 30 nM.

Take `COC(=O)CSc1cccc(C(OC2CCN(C)CC2)c2nc3ccccc3s2)c1` (stereo not shown) [Example 160, {3-[benzothiazol-2-yl(1-methylpiperidin-4-yloxy)methyl]phenylsulfanyl}acetic acid methyl ester]: the Ki or IC50 activity class was less than 30 nM.

On to `CN1CCC(OC(c2cccc(OCc3cccc(F)c3F)c2)c2nc3ccccc3s2)CC1` (stereo not shown) [Example 161, 2-[[3-(2,3-difluorobenzyloxy)phenyl](1-methylpiperidin-4-yloxy)methyl]benzothiazole], for which the Ki or IC50 activity class was less than 30 nM.

In turn, `CN1CCC(OC(c2cccc(OCCF)c2)c2nc3ccccc3s2)CC1` (stereo not shown) [Example 163, 2-[[3-(2-fluoroethoxy)phenyl](1-methylpiperidin-4-yloxy)methyl]benzothiazole] displayed a Ki or IC50 activity class of less than 30 nM.

For `C=CCCCOc1cccc(C(OC2CCN(C)CC2)c2nc3ccccc3s2)c1` (stereo not shown) [Example 168, 2-[(1-methylpiperidin-4-yloxy)(3-pent-4-enyloxy-phenyl)methyl]benzothiazole], the Ki or IC50 activity class is less than 300 nM.

As for `CN1CCC(OC(c2cccc(OCCCC(F)(F)F)c2)c2nc3ccccc3s2)CC1` (stereo not shown) [Example 169, 2-{(1-methylpiperidin-4-yloxy)[3-(4,4,4-trifluoro-butoxy)phenyl]methyl}benzothiazole], the Ki or IC50 activity class is less than 1000 nM.

For `CN1CCC(OC(c2cccc(OCc3cccc(F)c3)c2)c2nc3ccccc3s2)CC1` (stereo not shown) [Example 171, 2-[[3-(3-fluorobenzyloxy)phenyl](1-methylpiperidin-4-yloxy)methyl]benzothiazole], the Ki or IC50 activity class is less than 30 nM.

For the compound `CN1CCC(OC(c2cccc(C#N)c2)c2nc3ccccc3[nH]2)CC1` (stereo not shown) [Example 172, 3-[(1H-benzimidazol-2-yl)(1-methylpiperidin-4-yloxy)methyl]benzonitrile], the Ki or IC50 activity class is less than 300 nM.

`CN1CCC(OC(c2cccc(SCc3ccco3)c2)c2nc3ccccc3[nH]2)CC1` (stereo not shown) [Example 173, 2-[[3-(furan-2-ylmethylsulfanyl)phenyl](1-methylpiperidin-4-yloxy)methyl]-1H-benzimidazole]: the Ki or IC50 activity class was less than 300 nM.

For the compound `CN1CCC(NC(c2cccc(OCCCC3(C)OCCO3)c2)c2nc3ccccc3[nH]2)CC1` (stereo not shown) [Example 174, ((1H-benzimidazol-2-yl)-{3-[3-(2-methyl-[1,3]dioxolan-2-yl)-propoxy]phenyl}methyl)(1-methylpiperidin-4-yl)amine], the Ki or IC50 activity class is less than 300 nM.

Compound `CN1CCC(OC(c2cccc(OCCCF)c2)c2nc3ccccc3s2)CC1` (stereo not shown) [Example 176, 2-[[3-(3-fluoropropoxy)phenyl](1-methylpiperidin-4-yloxy)methyl]benzothiazole] returned a Ki or IC50 activity class of less than 30 nM.

`CN1CCC(OC(c2cccc(OCCC(F)(F)F)c2)c2nc3ccccc3s2)CC1` (stereo not shown) [Example 178, 2-{(1-methylpiperidin-4-yloxy)[3-(3,3,3-trifluoro-propoxy)phenyl]methyl}benzothiazole] displayed a Ki or IC50 activity class of less than 300 nM.

Compound `CN1CCC(NC(c2cccc(OCCF)c2)c2nc3ccccc3[nH]2)CC1` (stereo not shown) [Example 180, {(1H-benzimidazol-2-yl)[3-(2-fluoro-ethoxy)phenyl]methyl}(1-methylpiperidin-4-yl)amine] showed a Ki or IC50 activity class of less than 30 nM.

The compound `CN1CCC(NC(c2cccc(OCCC3=CCC4CC3C4(C)C)c2)c2nc3ccccc3[nH]2)CC1` (stereo not shown) [Example 181, ((1H-benzimidazol-2-yl)-{3-[2-(6,6-dimethyl-bicyclo[3.1.1]hept-2-en-2-yl)ethoxy]phenyl}methyl)(1-methylpiperidin-4-yl)amine] displayed a Ki or IC50 activity class of less than 30 nM.

`COc1cccc(COc2cccc(C(OC3CCN(C)CC3)c3nc4ccccc4s3)c2)c1` (stereo not shown) [Example 185, 2-[[3-(3-methoxybenzyloxy)phenyl](1-methylpiperidin-4-yloxy)methyl]benzothiazole] returned a Ki or IC50 activity class of less than 30 nM.

Regarding `CC(=O)CCCOc1cccc(C(OC2CCN(C)CC2)c2nc3ccccc3s2)c1` (stereo not shown) [Example 186, 5-{3-[benzothiazol-2-yl(1-methylpiperidin-4-yloxy)methyl]phenoxy}pentan-2-one], the Ki or IC50 activity class is less than 1000 nM.

Compound `CN1CCC(OC(c2cccc(OCc3cccc(C(F)(F)F)c3)c2)c2nc3ccccc3s2)CC1` (stereo not shown) [Example 187, 2-{(1-methylpiperidin-4-yloxy)[3-(3-trifluoromethyl-benzyloxy)phenyl]methyl}benzothiazole] had a Ki or IC50 activity class of less than 30 nM.

Take `CN1CCC(OC(c2cccc(C#CCN3C(=O)c4ccccc4C3=O)c2)c2nc3ccccc3[nH]2)CC1` (stereo not shown) [Example 189, 2-(3-{3-[(1H-benzimidazol-2-yl)(1-methylpiperidin-4-yloxy)methyl]phenyl}prop-2-ynyl)isoindole-1,3-dione]: the Ki or IC50 activity class was less than 300 nM.

Turning to `C#Cc1cccc(C(OC2CCN(C)CC2)c2nc3ccccc3[nH]2)c1` (stereo not shown) [Example 195, 2-[(3-ethynylphenyl)(1-methylpiperidin-4-yloxy)methyl]-1H-benzimidazole], the Ki or IC50 activity class is less than 300 nM.

`CN1CCC(OC(c2cccc(OCc3cccc([N+](=O)[O-])c3)c2)c2nc3ccccc3s2)CC1` (stereo not shown) [Example 196, 2-{(1-methylpiperidin-4-yloxy)[3-(3-nitro-benzyloxy)phenyl]methyl}benzothiazole] registered a Ki or IC50 activity class of less than 30 nM.

The compound `CN1CCC(OC(c2cccc(C#N)c2)c2nc3ccccc3s2)CC1` (stereo not shown) [Example 197, 3-[benzothiazol-2-yl(1-methylpiperidin-4-yloxy)methyl]benzonitrile] showed a Ki or IC50 activity class of less than 30 nM.

For `CN1CCC(OC(c2cccc(-c3c[nH]nn3)c2)c2nc3ccccc3[nH]2)CC1` (stereo not shown) [Example 198, 2-{(1-methylpiperidin-4-yloxy)[3-(1H-[1,2,3]triazol-4-yl)phenyl]methyl}-1H-benzimidazole], the Ki or IC50 activity class is less than 30 nM.

Regarding `COC(=O)c1cccc(C(OC2CCN(C)CC2)c2nc3ccccc3s2)c1` (stereo not shown) [Example 199, 3-[benzothiazol-2-yl(1-methylpiperidin-4-yloxy)methyl]benzoic acid methyl ester], the Ki or IC50 activity class was less than 300 nM.
